Data set [1] in a line: Metabolic stability in Sprague-Dawley rat assessed as hepatic extraction ratio. The data set is classed as ADME, tissue-based. Particulars: liver.
Data set [2] can be described thus: Metabolic stability in Sprague-Dawley rat bile assessed as drug remaining. The data set is classed as ADME.
A short description of data set [3]: Metabolic stability in Sprague-Dawley rat liver microsomes assessed as half life. The data set is classed as ADME, Microsome. Background: Liver microsomes are vesicles of endoplasmic reticulum, rich in cytochrome P450 enzymes.
A short description of data set [4]: Protein binding in Sprague-Dawley rat plasma at 1 ug/ml. The data set is classed as ADME, cell-free. Particulars: read-out: PPB (converted).
A short description of data set [5]: Protein binding in Beagle dog plasma at 1 ug/ml. The data set is classed as ADME, cell-free, Canis lupus familiaris. Particulars: read-out: PPB (converted).
Data set [6] can be described thus: Lipophilicity, log D in 0.1M potassium phosphate buffer at pH 7.4. The data set is classed as physicochemical.
The nature of data set [7]: Dissociation constant, pKa of the compound. Format: physicochemical.
A short description of data set [8]: Drug uptake in Sprague-Dawley rat hepatocytes. The data set is classed as ADME, cell-based, Hepatocyte.
The subject of data set [9] is Hepatocyte. The data set is described as follows: Drug uptake in Sprague-Dawley rat hepatocytes assessed per 10^6 cells. The data set is classed as ADME, cell-based.
The nature of data set [10]: Elimination half life in Sprague-Dawley rat at 3 mg/kg, iv. Format: ADME, organism-based. The arrangement: dose 3 mg/kg, route intravenous. The following applies: in vivo.
The nature of data set [11]: Plasma clearance in Sprague-Dawley rat at 3 mg/kg, iv. Format: ADME, organism-based. Also noted: dose 3 mg/kg, route intravenous.
In data set [12] the test system is Rattus norvegicus. The data set is described as follows: Unbound plasma clearance in Sprague-Dawley rat at 3 mg/kg, iv. The arrangement: dose 3 mg/kg, route intravenous. Format: ADME, organism-based. Particulars: in vivo.
Data set [13] can be described thus: Volume of distribution in Sprague-Dawley rat at 3 mg/kg, iv. Particulars: in vivo. Also noted: dose 3 mg/kg, route intravenous. The data set is classed as ADME, organism-based.
The subject of data set [14] is Rattus norvegicus. In words: Unbound volume of distribution in Sprague-Dawley rat at 3 mg/kg, iv. The data set is classed as ADME, organism-based. The arrangement: dose 3 mg/kg, route intravenous. The following applies: in vivo.
Data set [15] is described as follows: Elimination half life in Beagle dog at 0.5 mg/kg, iv. The arrangement: dose 0.5 mg/kg, route intravenous. The following applies: in vivo. The data set is classed as ADME, organism-based, Canis lupus familiaris.
Data set [16] can be described thus: Plasma clearance in Beagle dog at 0.5 mg/kg, iv. Format: ADME, organism-based, Canis lupus familiaris. The arrangement: dose 0.5 mg/kg, route intravenous.
The subject of data set [17] is Canis familiaris. In words: Unbound plasma clearance in Beagle dog at 0.5 mg/kg, iv. Format: ADME, organism-based, Canis lupus familiaris. Particulars: in vivo. Also noted: dose 0.5 mg/kg, route intravenous.
Data set [18] is described as follows: Volume of distribution in Beagle dog at 0.5 mg/kg, iv. Particulars: in vivo. The data set is classed as ADME, organism-based, Canis lupus familiaris. The arrangement: dose 0.5 mg/kg, route intravenous.
Data set [19] concerns Canis familiaris. In words: Unbound volume of distribution in Beagle dog at 0.5 mg/kg, iv. The data set is classed as ADME, organism-based, Canis lupus familiaris. The arrangement: dose 0.5 mg/kg, route intravenous. Particulars: in vivo.
Data set [20] is filed under the species Homo sapiens. In words: Protein binding in human plasma at 1 ug/ml. Particulars: read-out: PPB (converted).
Data set [21] can be described thus: Oral bioavailability in Beagle dog at 2 mg/kg. The data set is classed as ADME, organism-based, Canis lupus familiaris. Particulars: in vivo.
Data set [22] in a line: Oral absorption in Beagle dog at 2 mg/kg, po. The data set is classed as ADME, organism-based, Canis lupus familiaris. The arrangement: dose 2 mg/kg, route oral. Particulars: in vivo, read-out: Fabs.
Data set [23] is described as follows: Metabolic stability in human liver microsomes assessed as half life at 1 uM. Format: ADME, Microsome.
A short description of data set [24]: Fraction unbound in human liver microsomes at 1 uM. Format: ADME, Microsome.
For data set [25], the system named is Liver microsomes. The data set is described as follows: Unbound intrinsic clearance in human liver microsomes at 1 uM. The data set is classed as ADME, Microsome.
The nature of data set [26]: Metabolic stability in Beagle dog liver microsomes assessed as half life at 1 uM. The data set is classed as ADME, Canis lupus familiaris, Microsome.
Data set [27] in a line: Fraction unbound in Beagle dog liver microsomes at 1 uM. Format: ADME, Canis lupus familiaris, Microsome.
The subject of data set [28] is Liver. In words: Unbound intrinsic clearance in Beagle dog liver microsomes at 1 uM. The data set is classed as ADME, Canis lupus familiaris, Microsome.
Data set [29] is described as follows: Oral bioavailability in Beagle dog at 0.5 mg/kg. The data set is classed as ADME, organism-based, Canis lupus familiaris. Particulars: in vivo.
Data set [30] can be described thus: Oral absorption in Beagle dog at 0.5 mg/kg, po. Particulars: in vivo, read-out: Fabs. The data set is classed as ADME, organism-based, Canis lupus familiaris. The arrangement: dose 0.5 mg/kg, route oral.

The half-life is the time in which the quantity being followed falls by half. As usually defined, the logD is the decadic logarithm of the distribution of all forms, ionised or not, between an organic phase and buffer at a given pH. A lower logD goes with lower lipophilicity. Usually pKa stands for the pH at which an ionisable group is half protonated. Lower therefore signals a group that gives up its proton readily. Broadly, the Km is the substrate concentration at which the rate is half of its maximum. The Vmax is the rate approached at saturating substrate. The term clearance denotes the rate of elimination divided by the concentration. Low readings indicate inefficient removal, high ones efficient removal. A word on the bioavailability: it is dose-corrected exposure relative to a reference, in per cent. High values mean good availability, low ones poor availability.

Turning to `COc1cc2nc(N3CCCN(C(=O)N4CC(O)C(O)C4)CC3)nc(Nc3ccccn3)c2cc1OC` (centres undefined), in [1], the hepatic extraction ratio was found to be 0.7. Besides, in data set [2], the Stability was found to be 100%. In data set [3], the half-life is greater than 2 h.
Regarding `COc1cc2c(cc1OC)CN(c1nc(N3CCCN(C(=O)N4CC(O)C(O)C4)CC3)nc3cc(OC)c(OC)cc13)CC2` (centres undefined), the fraction unbound at 1 ug/ml in data set [4] is 0.05; in [5], 0.1; in data set [20] it was 0.03. In [6], this molecule came in with a logD of 4. This molecule registered a pKa in [7] of 6.2. The hepatic extraction ratio in [1] was 0.7. In addition, in data set [2], the Stability turned out to be 90%. Besides, the half-life in data set [3] was greater than 2 h; in data set [10] it was 1.4 h; in data set [15], 2.4 h. For the same molecule, in [8], the Michaelis-Menten constant (Km) worked out at 6.5 µM. In addition, the Vmax in data set [9] was determined as 481 pmol/min. Also, the results for the clearance in data set [11] and in data set [16] were 135 mL/min/kg and 47 mL/min/kg, respectively. Moreover, the values for the CL in [12] and in [17] were 2700 mL/min/kg and 470 mL/min/kg, respectively. Also, the Vd in data set [13] was 9.3 L/kg; in data set [14] it was 186 L/kg; in data set [18] it was 10 L/kg; in [19], 100 L/kg.
In [21], `COc1cc2nc(N3CCCN(C(=O)N4CCOCC4)CC3)nc(N)c2c(-c2ccccn2)c1OC` showed a bioavailability of 63%. In data set [22], the Fa worked out at 100%. The fraction unbound at 1 ug/ml in data set [5] is 0.56. In [6], this molecule displayed a logD of 1.5. This molecule also showed a pKa in data set [7] of 6.9. Moreover, in data set [15], the half-life was 1.6 h. In addition, the clearance in data set [16] was found to be 20 mL/min/kg. The CL is 60 mL/min/kg in [17], 34 mL/min/kg in data set [25] and 41 mL/min/kg in [28]. The results for the Vd in data set [18] and in data set [19] were 2.2 L/kg and 4 L/kg, respectively. The half-life at 1 µM in data set [23] amounted to 0.15 h; in data set [26], 0.767 h. The fraction unbound at 1 µM in data set [24] was determined as 1; in data set [27], 0.939.
As to `COc1cc2nc(N3CCc4ncccc4C3)nc(N)c2c(-c2ncccn2)c1OC`, the bioavailability in data set [29] was 28%. The Fa in [30] worked out at 100%. Moreover, in data set [5], the fraction unbound at 1 ug/ml was 0.45. Further, the logD in data set [6] was found to be 2.1. In data set [7], this molecule had a pKa of 6.5. In addition, in data set [15], the half-life is 1.5 h. For the same molecule, in data set [16], the clearance is 40 mL/min/kg. Moreover, the figures for the CL in [17], in [25] and in [28] were 450 mL/min/kg, 12 mL/min/kg and 50 mL/min/kg, respectively. In addition, the Vd in data set [18] was found to be 5.1 L/kg; in data set [19], 11 L/kg. For the same molecule, the half-life at 1 µM in [23] turned out to be 0.517 h; in [26], 0.6 h. The fraction unbound at 1 µM in data set [24] came to 0.823; in data set [27] it was 1.
In turn, `COc1cc2nc(N3CCCN(C(=O)N4CCOCC4)CC3)nc(N)c2cc1-c1ccccn1` came in with a bioavailability in data set [21] of 35%. Also, the Fa in data set [22] amounted to 65%. The fraction unbound at 1 ug/ml in [5] was 0.22. The molecule further gave a logD in data set [6] of 2.1. This molecule also had a pKa in data set [7] of 6.6. In [15], the half-life was 2.3 h. For the same molecule, the clearance in data set [16] came out at 23 mL/min/kg. Moreover, the results for the CL in [17], in data set [25] and in data set [28] were 200 mL/min/kg, 96 mL/min/kg and 162 mL/min/kg, respectively. Moreover, the Vd in data set [18] is 4.3 L/kg; in data set [19], 20 L/kg. For the same molecule, the half-life at 1 µM is 0.0833 h in [23] and 0.233 h in data set [26]. The fraction unbound at 1 µM in data set [24] came to 0.637; in data set [27], 0.791.
Take `COc1cc2nc(N3CCCN(C(=O)N4CCOCC4)CC3)cc(N)c2c(-c2ncco2)c1OC`: the bioavailability in [29] amounted to 76%. For the same molecule, the Fa in data set [30] came out at 86%. Besides, the fraction unbound at 1 ug/ml in [5] is 0.22. Moreover, the log distribution coefficient (logD) in data set [6] was found to be 1.1. The pKa in [7] is 7.5. Further, the half-life in data set [15] was 1.9 h. Also, the clearance in [16] is 5.9 mL/min/kg. In addition, the Vd worked out at 1 L/kg in data set [18] and 4.5 L/kg in [19]. Further, the figures for the half-life at 1 µM in data set [23] and in [26] were 0.317 h and 1.33 h, respectively. The fraction unbound at 1 µM in data set [24] amounted to 0.745; in data set [27] it was 0.962.
